Results on four molecules are retold here after article PMC4667193 (Scientific Reports, 2015).

In data set [1] the test system is rat primary hippocampal cell culture. As to the kind of experiment: MTT viability assay, AEME-induced neurotoxicity. The format is cell-based. The note with it: 10 nM antagonist/inhibitor added 30 minutes prior to 10^−3 M AEME, 24 hours, % of control. How it is done:
Neuronal viability was evaluated in the hippocampal cell culture using the 3-(4,5-dimethylthiazol-2-yl)-2,5-diphenyltetrazolium bromide (MTT; Sigma) reduction assay, with some modification. Briefly, after 24 hours of incubation with 10^−3 M AEME in the absence and in the presence of 10 nM pirenzepine hydrochloride (M1 selective antagonist; Sigma), 10 nM p-F-HHSiD (M3 selective antagonist; Sigma) and the specific inhibitor of different isoforms of PLC U73122 (10 nM)[55] (Sigma), all the medium was removed, and 100 μL of MTT solution, containing 5 mg/mL MTT in PBS and neurobasal medium without phenol red (1:9, v/v) were added. After 3 hours of incubation with MTT at 37 °C in a humidified atmosphere of 5% CO2, the MTT solution was removed and 200 μL of dimethyl sulfoxide was added to each well. After 30 minutes of shaking, the absorbance was measured at 570 nm in a multiwell plate reader (BioTek Synergy H1 Hybrid Reader). Potassium chloride (250 mM) was used as a positive control of neuronal death. Muscarinic antagonists, as well as the iPLC, were added 30 minutes prior to incubation with AEME. The antagonist concentration used was near the pKi[25][56]. A control containing 0.002% DMSO was used, since the iPLC stock solution was previously dissolved in this solvent. The assay was performed in quadruplicate, and the results were expressed as a percentage of the control value.
(In general: Formazan colour is commonly taken as a measure of viable cells.)

Data set [2] has the same test system. Description: total [^3H]inositol phosphate accumulation in hippocampal cells. The data set is classed as cell-based. The note with it: 10^−8 to 10^−3 M. How it is done:
Hippocampal cells (1 × 10^6 cells/well) were allowed to equilibrate for 10 minutes with a nutrient solution of the following composition (mM): NaCl 157.00; KCl 5.60; CaCl2 0.27; MgCl2 3.00; NaHCO3 1.80; glucose 5.50 (pH 7.0–7.2) at 37 °C under constant shaking. Cells were incubated with 5 μCi of myo[^3H]inositol (specific activity 18.0 Ci/mmol) for 80 minutes, and lithium chloride (10 mM) for additional 30 minutes. Afterwards, the cells were incubated in the absence (basal level) and in the presence of carbachol (positive control) and AEME (10^−8 to 10^−3 M) for 10 minutes. Cells were removed from the plate using a 0.1 M NaOH solution and washed three times with nutrient solution, transferred to 2 mL of methanol:chloroform (2:1 v-v) at 4 °C and homogenized with a Ultra-Turrax T25 homogenizer at 9500 rpm. Chloroform (0.62 mL) and H2O (0.93 mL) were added to the homogenate, and the solution was centrifuged for 5 minutes at 1,000× g to separate aqueous and organic phases. Total [^3H]inositol phosphate was measured as previously described by Ascoli et al.[45] with slight modification. The aqueous layer was neutralized with 0.1 M HCl and then mixed with 1 mL anion-exchange resin (Dowex AG-X8, formate form, 200–400 mesh), allowed to equilibrate for 30 minutes at room temperature, under agitation, and centrifugated at 1,000× g, for 5 minutes at 4 °C. The resin was then washed sequentially, with 10 mM myo-inositol (2 mL) and 5 mM sodium tetraborate/60 mM sodium formate (2 mL). The resin was incubated for 30 minutes at room temperature with 2 mL of 0.1 M formic acid/1 M ammonium formate). The total [^3H]inositol phosphate was eluted and placed in scintillation vials containing OptiPhase HiSafe 3. The amount of radioactivity was determined in scintillation β-counter (LS 6500 IC, Beckman). Total [^3H]inositol phosphate was expressed as percentage above basal level.

`COc1ccc2c(c1)CC[C@@H]1[C@@H]2CC[C@]2(C)[C@@H](NCCCCCCN3C(=O)C=CC3=O)CC[C@@H]12` [U73122]: the viable cells in data set [1] is listed as 102.6%. Take `C[N+](C)(C)CCOC(N)=O` [carbachol, reference compound]: in data set [2], the “effect on total [^3H]inositol phosphate” value is “concentration-dependent increase”. Also, the “concentration giving maximum inositol phosphate accumulation” value in data set [2] (10 minutes) is recorded as 10^−5 M. As for `Cl.O[Si](CCCN1CCCCC1)(c1ccc(F)cc1)C1CCCCC1` (centres unmarked) [p-F-HHSiD, p-fluorohexahydro-sila-difenidol hydrochloride], the viable cells in data set [1] is reported as 85.4%.

`CN1CCN(CC(=O)N2c3ccccc3C(=O)Nc3cccnc32)CC1` [pirenzepine]: the viable cells in data set [1] came to 98.4%.
